Each block holds one compound with its values, some of them ahead of it.
Key:
SOD-1 protein = assay: SOD-1 ELISA on lysates of HeLa cells after 72 hours of incubation with drug; type: cell-based, human
Description: Briefly, cells were maintained in Dulbecco's Minimal Essential Medium, with high glucose, supplemented with glutamine, 4 mM, certified fetal bovine serum, 10%, and penicillin, streptomycin, and nystatin (all from Invitrogen). Incubation conditions were 37 degrees and 99% relative humidity, with CO2 at 5%. Cultures were passaged when they reached 90% confluence. For pharmacological experiments, cells were plated into sterile tissue culture treated 96 well plates at a density of 3,500 cells/well in 150 μl medium. After plating and 6 hours for attachment, drugs were added to the medium in a concentration of 10 μM. Following 72 hours of incubation with the drugs, the cells were photographed at 100× using an inverted microscope and digital camera, so that cytotoxicity could be evaluated. After photodocumentation, the medium was removed and the cells were washed once with phosphate buffered saline, and then 50 μl molecular biology grade water containing a protease inhibitor cocktail was added. After 10 min incubation, the plates were placed in −80 degrees to induce complete lysis. Plates were then thawed and 25 μl was transferred from each well into a maxsorp ELISA plate coated with anti-human SOD-1 antibody, which contained 75 μl phosphate buffered saline. A second antibody pair (a polyclonal anti-SOD-1/HRP conjugated goat anti-rabbit) was then added to the well, and incubation was conducted for 1 hour at room temperature. At the conclusion of the incubation, the plate was washed three times (wash buffer from KPL Inc.) and Sure Blue Reserve HRP Substrate was added. […] The plate was then shaken gently for 5 seconds and the absorbance at 450 mn read on a Tecan Plate reader. Absorbance from each sample were compared to standard curve of purified recombinant human SOD-1 assayed on the same ELISA plate, and SOD-1 immunoreactivity (ng/ml) was estimated by comparison with the standard curve. […] The total protein of the lysates was determined by Bradford assay as described in Example 1 (iv). […]

HeLa cells = assay: Bradford total protein assay of HeLa lysates (check for cytotoxic effects); type: cell-based, human; details: 72 hours
Description: To determine if decrements found in the SOD-1 assay were simply the result of cytotoxic effects of the drug treatment, total protein was determined for each well. While the ELISA incubation was ongoing, 10 μl of the remaining lysate was removed from each well and placed into another empty plate, and BioRad Bradford reagent (100 μl) was added to the protein. After a 15 min incubation at room temperature the plate was shaken gently for 5 seconds and the absorbance was read at 595 nm in a Tecan Sunrise plate reader. Protein concentrations in each well were thus determined by comparison with protein standards that were run on the same plate.
Following 72 hours of incubation with the drugs, the cells were photographed and processed as described in Example 1 (iii). The total protein of the lysates was determined by Bradford assay as described in Example 1 (iv). […] This reduction was dose related and maximal by 3 μM, with an IC50 of 2 μM.

SOD-1 mRNA = SOD-1 mRNA by RT-PCR in blood of the SOD-93A murine model for ALS; type: in vivo; details: SOD-93A mice, ip 1 or 10 mg/kg for 14 days, lymphocyte/blood samples, p<0.05, FIG. 2
Description: The effects of the estrogen receptor modulating agent (e.g., Estradiol), and analogs thereof described in Examples 2 were tested in vivo in the SOD-93A murine model for ALS, and a reduction in SOD-1 levels was measured. The inhibition of RNA expression was monitored by isolated blood samples from a mouse pre- and post introduction of the compound (estradiol benzoate) using standard RT-PCR techniques. The expression of the SOD-1 protein was determined using Western blot techniques with an anti-SOD-1 antibody from Sigma. […] The results are shown as a % of internal control, 18S rRNA.

Compound: CCCCC(=O)O[C@H]1CC[C@H]2[C@@H]3CCc4cc(O)ccc4[C@H]3CC[C@]12C [estradiol valerate]
levels of SOD-1 protein (SOD-1 protein; 72 hours, FIG. 1): reduction

IC50 (SOD-1 protein; drug added to culture medium 72 hours before harvest, read-out: IC50 of reduction of SOD-1 protein levels): 2000 nM
Compound: C[C@]12CC[C@@H]3c4ccc(O)cc4CC[C@H]3[C@@H]1CC[C@@H]2O [Estradiol]
concentration at which reduction of SOD-1 protein is maximal (SOD-1 protein; 72 hours, dose related): ≤ 3 µM
total protein levels (HeLa cells): unaffected

Compound: C[C@]12CC[C@@H]3c4ccc(OC(=O)c5ccccc5)cc4CC[C@H]3[C@@H]1CC[C@@H]2O [estradiol benzoate]
SOD-1 mRNA (% of internal control, 18S rRNA) (SOD-1 mRNA): decreased
